Measured values as given in PMC8699473, “An Easily Expandable Multi-Drug LC-MS Assay for the Simultaneous Quantification of 57 Oral Antitumor Drugs in Human Plasma” (Cancers, 2021).

How the values were obtained:
[1] = parameters: method as in supplement references [1-55] as printed per drug; settings: minimum steady-state blood plasma concentration after multiple dose administration; ref supplement references [1-55] per drug; cited from earlier work
[2] = Autosampler stability of ready for injection samples; type: physicochemical, human
[3] = Plasma concentrations in patients on oral antitumor therapy (LC-MS); type: in vivo, human
From the text: The liquid chromatography-mass spectrometer system consisted of a Thermo Scientific Dionex UltiMate^TM 3000 with an integrated and temperature controlled autosampler (Thermo Fisher Scientific, Dreieich, Germany). An Acquity UPLC® BEH C18 column (2.1 × 100 mm, 1.7 µm; Waters, Milford, CT, USA) equipped with an Acquity UPLC® BEH C18 VanGuard^TM Pre-Column (2.1 × 5 mm, 1.7 µm; Waters, Milford, CT, USA) was used for chromatographic separation. The Q-Exactive^TM Focus mass spectrometer (MS) was hyphenated with a heated electrospray ionization (HESI) source (both from Thermo Fisher Scientific, Dreieich, Germany).
Chromatographic separation was achieved using a gradient elution with water containing 0.5% (v/v) FA (eluent A) and MeOH with 0.1% (v/v) FA (eluent B). The injection volume was 5 µL. The gradient program is shown in Supplement Table S2. The flow rate was 0.5 mL/min with a total run time of 15 min. The column heater was maintained at 50 °C and the autosampler temperature was 4 °C.
The following MS and HESI settings were maintained for all analyses: Sheath gas, auxiliary gas, and sweep gas flow rates were set to 60, 20, and 0, respectively. The spray voltage was 4000 V. Both capillary and auxiliary gas heater temperatures were set to 400 °C. High-purity nitrogen gas was used for the HESI source gases and for the bath gas of the C-trap. […] The HESI source was configured in positive mode for ionization.
The stock solutions were stored in glass vials at −80 °C. Aliquots of all stock solutions were combined in ACN (volumes of individual stock solution solvents are negligible) to obtain a standard solution of all analytes with an individual concentration of 200% of the respective trough level (cmin). Eight individual working standards were prepared by stepwise dilution of this standard solution with concentrations from 10 to 200% cmin (shown in Supplement Table S3). Furthermore, the four individual IS stock solutions were combined and diluted to 50 ng/mL with ACN. Calibration and validation standards were prepared by spiking 50 µL pooled human plasma with 10 µL of the respective working solution. Next, 250 µL IS solution (50 ng/mL in ACN) were added and vortexed vigorously. […] Then, 100 µL supernatant were transferred to 300 µL HPLC insert glass vials and diluted with 100 µL eluent (90% A/10% B). For blank samples, 50 µL pooled human plasma were combined with 10 µL ACN (instead of working solution) and prepared as described above. The calibration and validation standards were freshly prepared before every run. Patient plasma samples were prepared as calibration and validation standards (no additional processing step necessary), except for adding 10 µL ACN instead of 10 µL working standard. Before sample preparation, the frozen plasma samples were thawed in absence of light at 4 °C.
Blood samples were collected over the entire dosing interval from patients treated with an oral anticancer drug as listed in Supplement Table S4. […] A maximum of two samples at two different time points throughout the entire dosing interval were collected per patient. Treatment duration before collection was at least five half-lives (depending on the specific oral anticancer drug). The samples were collected in K3-EDTA tubes.
A total of 71 blood samples from 39 patients treated with 14 different oral anticancer drugs were collected (see Supplement Table S4 for details). All patients were recruited from independent outpatient clinics associated with the Comprehensive Cancer Center of the University Hospital Erlangen (CCC Erlangen-EMN). Of 71 blood samples, 41 were taken ±4 h of trough level (cmin).

[4] = Long-term stability in spiked pooled human plasma
[5] = 244 plasma samples; cited from earlier work
[6] = Short-term stability in spiked pooled human plasma (bench-top, 4 °C, 56 °C)
[7] = Freeze-thaw stability in spiked pooled human plasma; type: physicochemical
[8] = patient plasma, all samples, r.c. = respective cmin

C[C@]12CC[C@H](O)CC1=CC[C@@H]1[C@@H]2CC[C@]2(C)C(c3cccnc3)=CC[C@@H]12 [Abiraterone]
cmin [1]: 9.3 ng/mL
Autosampler (24h, 4°C) Accuracy [%] ([2]; validation standard 2xLLOV): 98.9%
Autosampler (72h, 4°C) Accuracy [%] ([2]; validation standard 2xLLOV): 97.9%
Autosampler (24h, 4°C) Accuracy [%] ([2]; validation standard LLOV): 90.8%
Autosampler (72h, 4°C) Accuracy [%] ([2]; validation standard LLOV): 94.9%
Autosampler (24h, 4°C) Accuracy [%] ([2]; validation standard MOV): 104.6%
Autosampler (72h, 4°C) Accuracy [%] ([2]; validation standard MOV): 101.6%
Autosampler (24h, 4°C) Accuracy [%] ([2]; validation standard ULOV): 100.2%
Autosampler (72h, 4°C) Accuracy [%] ([2]; validation standard ULOV): 104.1%
CV of plasma concentration at ±4 h of trough level ([3]; 14 patient samples): 140.8%
average concentration of the plasma samples at ±4 h of trough level ([3]; 14 patient samples): 10.2 ng/mL
range of plasma concentration at ±4 h of trough level ([3]; 14 patient samples): 0.4 to 59.5 ng/mL
Interpatient Coefficient of Variation [%] ([3]; patient plasma concentrations): 187.3%
Median Concentration of All Samples [% of r.c.] [3, 8]: 229.0 % of r.c.
Min–Max Concentration [% of r.c.] [3, 8]: 4.3–1784.9 % of r.c.
Long-term stability, 1 month, -20°C Accuracy [%] ([4]; validation standard 2xLLOV): 96.2%
Long-term stability, 1 month, -80°C Accuracy [%] ([4]; validation standard 2xLLOV): 93.5%
Long-term stability, 2 month, -20°C Accuracy [%] ([4]; validation standard 2xLLOV): 101.0%
Long-term stability, 2 month, -80°C Accuracy [%] ([4]; validation standard 2xLLOV): 100.1%
Long-term stability, 3 month, -20°C Accuracy [%] ([4]; validation standard 2xLLOV): 97.2%
Long-term stability, 3 month, -80°C Accuracy [%] ([4]; validation standard 2xLLOV): 97.9%
Long-term stability, 6 weeks, 4°C, without daylight Accuracy [%] ([4]; validation standard 2xLLOV): 101.6%
Long-term stability, 1 month, -20°C Accuracy [%] ([4]; validation standard LLOV): 96.5%
Long-term stability, 1 month, -80°C Accuracy [%] ([4]; validation standard LLOV): 93.2%
Long-term stability, 2 month, -20°C Accuracy [%] ([4]; validation standard LLOV): 97.0%
Long-term stability, 2 month, -80°C Accuracy [%] ([4]; validation standard LLOV): 105.8%
Long-term stability, 3 month, -20°C Accuracy [%] ([4]; validation standard LLOV): 101.7%
Long-term stability, 3 month, -80°C Accuracy [%] ([4]; validation standard LLOV): 106.0%
Long-term stability, 6 weeks, 4°C, without daylight Accuracy [%] ([4]; validation standard LLOV): 110.7%
Long-term stability, 1 month, -20°C Accuracy [%] ([4]; validation standard MOV): 95.8%
Long-term stability, 1 month, -80°C Accuracy [%] ([4]; validation standard MOV): 93.5%
Long-term stability, 2 month, -20°C Accuracy [%] ([4]; validation standard MOV): 101.2%
Long-term stability, 2 month, -80°C Accuracy [%] ([4]; validation standard MOV): 102.9%
Long-term stability, 3 month, -20°C Accuracy [%] ([4]; validation standard MOV): 101.8%
Long-term stability, 3 month, -80°C Accuracy [%] ([4]; validation standard MOV): 100.6%
Long-term stability, 6 weeks, 4°C, without daylight Accuracy [%] ([4]; validation standard MOV): 106.4%
Long-term stability, 1 month, -20°C Accuracy [%] ([4]; validation standard ULOV): 98.3%
Long-term stability, 1 month, -80°C Accuracy [%] ([4]; validation standard ULOV): 93.2%
Long-term stability, 2 month, -20°C Accuracy [%] ([4]; validation standard ULOV): 102.5%
Long-term stability, 2 month, -80°C Accuracy [%] ([4]; validation standard ULOV): 103.2%
Long-term stability, 3 month, -20°C Accuracy [%] ([4]; validation standard ULOV): 99.7%
Long-term stability, 3 month, -80°C Accuracy [%] ([4]; validation standard ULOV): 100.6%
Long-term stability, 6 weeks, 4°C, without daylight Accuracy [%] ([4]; validation standard ULOV): 102.8%
average plasma concentration [5]: 9.3 ng/mL
range of plasma concentration [5]: 2.0 to 49.8 ng/mL
Short-time stability (1h, 56°C) Accuracy [%] ([6]; validation standard 2xLLOV): 46.5%
Short-time stability (24h, 4°C, without daylight) Accuracy [%] ([6]; validation standard 2xLLOV): 96.9%
Short-time stability (24h, RT, with daylight) Accuracy [%] ([6]; validation standard 2xLLOV): 101.7%
Short-time stability (24h, RT, without daylight) Accuracy [%] ([6]; validation standard 2xLLOV): 101.5%
Short-time stability (1h, 56°C) Accuracy [%] ([6]; validation standard LLOV): 49.9%
Short-time stability (24h, 4°C, without daylight) Accuracy [%] ([6]; validation standard LLOV): 104.6%
Short-time stability (24h, RT, with daylight) Accuracy [%] ([6]; validation standard LLOV): 105.6%
Short-time stability (24h, RT, without daylight) Accuracy [%] ([6]; validation standard LLOV): 105.2%
Short-time stability (1h, 56°C) Accuracy [%] ([6]; validation standard MOV): 40.7%
Short-time stability (24h, 4°C, without daylight) Accuracy [%] ([6]; validation standard MOV): 97.4%
Short-time stability (24h, RT, with daylight) Accuracy [%] ([6]; validation standard MOV): 103.1%
Short-time stability (24h, RT, without daylight) Accuracy [%] ([6]; validation standard MOV): 101.1%
Short-time stability (1h, 56°C) Accuracy [%] ([6]; validation standard ULOV): 34.9%
Short-time stability (24h, 4°C, without daylight) Accuracy [%] ([6]; validation standard ULOV): 95.4%
Short-time stability (24h, RT, with daylight) Accuracy [%] ([6]; validation standard ULOV): 103.3%
Short-time stability (24h, RT, without daylight) Accuracy [%] ([6]; validation standard ULOV): 102.0%
Freeze-Thaw Accuracy [%] ([7]; validation standard 2xLLOV): 104.5%
Freeze-Thaw Accuracy [%] ([7]; validation standard LLOV): 105.9%
Freeze-Thaw Accuracy [%] ([7]; validation standard MOV): 101.5%
Freeze-Thaw Accuracy [%] ([7]; validation standard ULOV): 100.2%
